Calls of active or inactive are those of the source. No cut-off for these calls is given here.
Key:
[1] = system: NHDF; experiment: Cytotoxicity against HDF cells assessed as reduction in cell viability at 10 uM incubated for 24 to 48 hrs by MTT assay; format: toxicity, cell-based; details: human, time 24-48 hrs
[2] = molecular target: Mitogen-activated protein kinase; ERK1/ERK2 (Homo sapiens) (UniProt P27361+P28482); experiment: Induction of ERK1/2 phosphorylation in HDF cells at 10 uM incubated at 0.5 to 24 hrs by Western blot analysis; format: cell-based; details: filed as activator, time 0.5-24 hrs
[3] = system: HDF; experiment: Induction of JNK phosphorylation in HDF cells at 10 uM incubated at 0.5 to 24 hrs by Western blot analysis; format: cell-based; details: Homo sapiens, filed as activator, time 0.5-24 hrs
[4] = system: HDF; experiment: Induction of p38 phosphorylation in HDF cells at 10 uM incubated at 0.5 to 24 hrs by Western blot analysis; format: cell-based; details: Homo sapiens, time 0.5-24 hrs

Mitogen-activated protein kinase; ERK1/ERK2 (Homo sapiens), sequence (P27361 whole entry, looked up): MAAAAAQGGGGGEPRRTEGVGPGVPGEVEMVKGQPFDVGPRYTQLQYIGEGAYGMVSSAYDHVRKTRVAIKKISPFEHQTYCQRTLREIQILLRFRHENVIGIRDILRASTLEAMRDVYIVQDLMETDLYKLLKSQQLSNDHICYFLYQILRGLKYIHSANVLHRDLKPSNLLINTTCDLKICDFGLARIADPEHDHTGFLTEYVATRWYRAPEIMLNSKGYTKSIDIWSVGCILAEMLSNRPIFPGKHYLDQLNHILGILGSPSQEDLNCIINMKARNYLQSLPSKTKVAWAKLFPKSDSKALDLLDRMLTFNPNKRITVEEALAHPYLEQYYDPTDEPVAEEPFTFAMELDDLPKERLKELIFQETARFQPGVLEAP
Mitogen-activated protein kinase; ERK1/ERK2 (Homo sapiens), sequence (P28482 whole entry, looked up): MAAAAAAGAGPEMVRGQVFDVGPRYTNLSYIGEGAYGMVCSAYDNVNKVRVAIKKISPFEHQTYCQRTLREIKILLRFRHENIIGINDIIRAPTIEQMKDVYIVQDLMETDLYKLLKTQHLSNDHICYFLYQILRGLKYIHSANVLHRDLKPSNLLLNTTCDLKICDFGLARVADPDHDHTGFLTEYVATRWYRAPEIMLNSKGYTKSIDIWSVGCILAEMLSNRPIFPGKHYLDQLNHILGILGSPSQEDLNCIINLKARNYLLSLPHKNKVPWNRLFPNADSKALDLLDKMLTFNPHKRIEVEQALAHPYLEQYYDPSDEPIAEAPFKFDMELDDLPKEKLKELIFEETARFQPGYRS

Row | Compound | Activity [2] | Activity [1] | Activity [3] | Activity [4]
1 | CC(=O)O[C@@H]1[C@H](O)C2=C(C(=O)N([C@@H](C)C(=O)O)C2)[C@@]2(C)CCCC(C)(C)[C@H]12 | Active | Non-Toxic | Active | inactive
2 | CC(=O)O[C@@H]1[C@H](O)C2=C(C(=O)N([C@H](C(=O)O)C(C)C)C2)[C@@]2(C)CCCC(C)(C)[C@H]12 | Active | Non-Toxic | Active | inactive
3 | CC(=O)O[C@@H]1[C@H](O)C2=C(C(=O)N([C@@H](Cc3ccccc3)C(=O)O)C2)[C@@]2(C)CCCC(C)(C)[C@H]12 | Active | Non-Toxic | Active | inactive
4 | CC(=O)O[C@@H]1[C@H](O)C2=C(C(=O)N([C@@H](CC(C)C)C(=O)O)C2)[C@@]2(C)CCCC(C)(C)[C@H]12 | Active | Non-Toxic | Active | inactive
5 | CC(=O)O[C@@H]1[C@H](O)C2=C(C(=O)N([C@H](C(=O)O)[C@@H](C)O)C2)[C@@]2(C)CCCC(C)(C)[C@H]12 | Active | Non-Toxic | Active | inactive

The next lines start with results.

Row | Activity [2] | Compound | Activity [1] | Activity [3] | Activity [4]
6 | Active | CC[C@H](C)[C@@H](C(=O)O)N1CC2=C(C1=O)[C@@]1(C)CCCC(C)(C)[C@@H]1[C@H](OC(C)=O)[C@@H]2O | Non-Toxic | Active | inactive
7 | Active | CC(=O)O[C@@H]1[C@H](O)C2=C(C(=O)N(CC(=O)O)C2)[C@@]2(C)CCCC(C)(C)[C@H]12 | Non-Toxic | Active | inactive
